Results reported in patent publication US10487329B2, “Methods and compositions for the treatment of head and neck cancer” (Children's Hospital Medical Center, priority 2015, dated 2019).

Columns and labels:
IRAK1 = target: T1, IRAK1 (Homo sapiens, UniProt P51617); assay: Western blot for IRAK1 activation (phospho-IRAK1 Thr209) in HNSCC cell lines; type: cell-based; conditions: 10 μM, 24-72 hours post-treatment, UMSCC1 and UMSCC47 cells
T1 construct: endogenous in cells; host or cells: UMSCC1 and UMSCC47 cells
T1 sequence (P51617 whole entry): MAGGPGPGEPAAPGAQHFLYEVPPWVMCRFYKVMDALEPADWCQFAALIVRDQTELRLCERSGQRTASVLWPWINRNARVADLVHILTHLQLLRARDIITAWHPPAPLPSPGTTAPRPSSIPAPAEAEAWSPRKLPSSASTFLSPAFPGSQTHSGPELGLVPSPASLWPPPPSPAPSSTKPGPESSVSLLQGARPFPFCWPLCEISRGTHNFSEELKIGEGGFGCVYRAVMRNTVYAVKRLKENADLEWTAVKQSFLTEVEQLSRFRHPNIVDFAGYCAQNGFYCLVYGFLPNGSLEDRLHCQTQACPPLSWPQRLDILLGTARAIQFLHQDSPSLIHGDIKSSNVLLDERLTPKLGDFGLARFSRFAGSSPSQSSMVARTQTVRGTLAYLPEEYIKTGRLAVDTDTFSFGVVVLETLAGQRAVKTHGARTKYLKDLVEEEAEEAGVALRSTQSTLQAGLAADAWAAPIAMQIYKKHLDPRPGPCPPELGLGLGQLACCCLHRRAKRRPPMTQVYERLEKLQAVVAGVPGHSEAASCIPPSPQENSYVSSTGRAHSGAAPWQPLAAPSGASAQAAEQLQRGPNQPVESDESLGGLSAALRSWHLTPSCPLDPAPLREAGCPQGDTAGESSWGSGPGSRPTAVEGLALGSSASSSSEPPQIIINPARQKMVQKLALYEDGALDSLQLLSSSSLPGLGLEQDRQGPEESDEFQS
Description: Western blotting. Whole cell lysates were harvested using Laemmli buffer and a total of 20 μg of protein was analyzed as described previously. Membranes were probed with DEK (1:1000, BD Biosciences, San Jose, Calif., USA), IRAK1 (1:1000, Santa Cruz Biotechnology, Dallas, Tex., USA (sc-7883)), TRAF6 (1:1000, Santa Cruz (sc-7221)), phospho-IRAK1 (Thr209, 1:800, Assay Biotechnology Company (A1074), Sunnyvale, Calif., USA), phospho-p38 (1:500, Cell Signaling Technologies (4361)), p38 (1:1000, Cell Signaling Technologies (9212)), phospho-ERK1/2 (1:1000, Cell Signaling Technologies (4377)), ERK1/2 (1:1000, Cell Signaling Technologies (4695)), phospho-IKKa/r3 (1:500, Cell Signaling Technologies (2697)), IKKa (1:1000, Cell Signaling Technologies (2682)), phospho-hcBa (1:500, Cell Signaling Technologies (9246)), hcBa (1:1000, Cell Signaling Technologies (4812)), a-tubulin-HRP (1:10,000 Cell Signaling Technologies (9099)), actin (1:10,000 a gift from James Lessard), and GAPDH (1:1000, Cell Signaling Technologies (5174)).
IRAK1 inhibitor. […]
(§1) Cells and media were collected 72 hours later and prepared and analyzed as above. For the time-course experiment, cells were plated and inhibitor was added the following day, with protein collected at 24, 48, and 72 hours and analyzed by western blot for IRAK1 inhibition.

UMSCC1 cells = assay: Flow cytometry for cleaved caspase-3 (apoptosis), UMSCC1; type: cell-based, human; conditions: UMSCC1, inhibitor vs DMSO, 72 hours, p<0.05
Description: Flow cytometry for Cleaved Caspase-3. Lentivirally transduced cells were plated at equal densities and collected 48 hours later. Cells were fixed and prepped following the BD FITC Active Caspase-3 Apoptosis kit protocol (BD Biosciences). Adenovirally transduced cells were prepped with an Alexa-Fluor 647 conjugated cleaved-caspase 3 antibody to account for GFP-positivity (Cell Signaling Technologies (9602)). Analysis was performed on a BD FacsCanto and data analyzed on FlowJo software (Tree Star, Ashland, Oreg., USA). Experiments were performed 3 times with standard error of the mean (SEM) represented.
IRAK1 inhibitor. UMSCC1 cells were plated at equal densities and IRAK1 inhibitor (IRAK-1/4 inhibitor, 15409, Sigma-Aldrich, St. Louis, Mo., USA) added the same day for caspase-3 flow cytometry experiments. DMSO was added in equal volume for a control.
as §1

melanoma cells = conditions: in vitro and in vivo, references [20, 24]; cited from earlier work
IRAK1 and IRAK4 = conditions: reference [24]; cited from earlier work
MDS = conditions: references [20, 24]; cited from earlier work

activation of IRAK1 (phosphorylation of IRAK1) (IRAK1): attenuated activation of IRAK1
SMILES: O=C(Nc1nc2ccccc2n1CCN1CCOCC1)c1cccc([N+](=O)[O-])c1 [IRAK-1/4 inhibitor, N-(2-morpholinylethyl)-2-(3-nitrobenzoylamido)-benzimidazole]
apoptosis (cleaved caspase-3) (UMSCC1 cells): Significantly increased apoptosis | apoptosis in melanoma cells (melanoma cells): increase apoptosis | kinase selectivity (IRAK1 and IRAK4): selective for IRAK1 and IRAK4 | signaling and cell viability in MDS (MDS): inhibit signaling and cell viability
